Reference: patent US10253002B2, “Compounds and methods of treating infections” (Neoculi Pty Ltd., priority 2013, dated 2019)
Values after ≈ are worked out from the molar mass of the structure shown. Values joined by “and” are separate entries in the source; they are usually repeats but may differ in a detail not shown here. Equal entries are not always repeated. Where two headings read alike, the source gives them in different places.

Tests used:
[1] = tested on: vancomycin-resistant Enterococcus spp. (VRE); experiment: Broth microdilution MIC (CLSI), Example 1; type: cell-based
Experimental: Cation adjusted Mueller Hinton Broth (CAMHB) was prepared using 100 mL sterile Mueller Hinton broth (pH adjusted). To each 100 mL volume, 125 μL of calcium stock solution (10 mg Ca^2+ per ml) and 43 μL magnesium stock solution (10 mg Mg^2+ per mL) was aseptically added. Sufficient broth is made up for daily use, with unused portions being stored at 4° C. overnight.
Potency was described as 1000 mg/g or 100%. The powder was dissolved in 10 mL DMSO and 1 mL volumes were aliquoted into eppendorf tubes and stored at −80° C.
Serial dilutions were prepared in 96 well plates were set up in a safety cabinet according to methods standard in the art. Briefly: 90 μL of the working antibiotic solution was added to each well in Column 12 of the plate, and mixed well, before 90 μL was transferred to column 11. The solutions were mixed again, and then transferred to the next column as before, continuing the dilutions through to column 3. Mixing the well requires the pick up and expulsion of 90 μL in each well 3-4 times before picking up and transferring the 90 μL to the next well. […] The trays were set up as follows: 2 strains were tested in duplicate in one tray, such that strain 1 was located in rows A to D, strain 2 was located in rows E to H, etc.
Fresh cultures of bacteria were prepared for testing on sheep blood agar (SBA), and overnight incubation at 37° C. as follows; 2-3 colonies of each strain in 7 mL sterile saline, and the OD600 measured as an indication of the density (approx. […] or 0.5 McFarland Standard). The bacterial suspension was adjusted to a final absorbance of 0.08 to 0.100, using saline to achieve correct density, and as the blank. Within 15 minutes of preparation, the adjusted bacterial suspension with sterile saline 1:20 (1 mL into 19 mL sterile saline) to achieve a final bacterial concentration of 4 to 5×10^6 CFU/mL. The bacterial solution was placed into a sterile trough and 10 μL of bacterial solution added into wells 2 through to 12 on each required row (dilution of 1:10, with final concentration of bacteria in wells=5×10^5 CFU/mL). The tray was sealed and incubated at 37° C. for 18-24 h. The purity of bacterial suspension was confirmed by streaking out 50 μL of the 1:20 dilution onto a SBA plate, which was incubated for 37° C. for 18 h and examined. Viable counts were carried out to ensure that the correct concentration of bacteria and been added to the wells. The diluted bacterial solution (4 to 5×10^6 CFU/mL) was diluted 1:10 downwards by adding 100 μL to 900 μL of sterile saline in sterile tubes, and the serial dilutions continued 1:10 for 5 tubes. 100 μL (4-5 drops) of the 4th and 5th dilutions (tube 4=105 and tube 5=10^6 CFU/ml) was plated around in duplicate on pre-dried PCA agar plates and incubated at 37° C. overnight. The following day the number of colonies on the plates was counted and the average count in 100 μL obtained. The study was multiplied by 10 to obtain a viable bacterial count per mL.
Minimum inhibitory concentrations (μg/mL) were determined using the broth microdilution method recommended by the Clinical and Laboratory Standards Institute (CLSI) (Methods for Dilution Antimicrobial Susceptibility Tests for Bacteria That Grow Aerobically; Approved Standard—Seventh Edition. CLSI M7-A7, 2006; Performance Standards for Antimicrobial Disk and Dilution Susceptibility Tests for Bacteria Isolated from Animals; Approved Standard—Second Edition. CLSI M31-A2, 2002; Performance Standards for Antimicrobial Susceptibility Testing; CLSI M2-A9, 2006).
MIC breakpoints were determined by visual assessment and then confirmed using an ELISA plate reader, measuring absorbance levels at 450 nm. Bacterial growth (turbidity) in the wells with antimicrobial was compared with the amount of growth (turbidity) in the growth-control well (containing no antimicrobial).

[2] = tested on: S. aureus clinical isolates (MRSA and MSSA); experiment: Broth microdilution MIC, Example 4; type: cell-based, Staphylococcus aureus; conditions: for MIC / MIC50 / MIC90: Staphylococcus aureus; for MIC: 24 h
Experimental: Microtiter plates containing two-fold dilutions of each antimicrobial agent were inoculated with ˜10^5 CFU/ml of each isolate in a 100 μL final volume. Plates were incubated for 24 h at 37° C. Turbidity (absorbance at OD600) was measured using a Bio-Rad Benchmark Plus microplate spectrophotometer in Microplate Manager® version 5.2.1 (Bio-Rad). Minimum inhibitory concentration (MIC) endpoints were defined as the lowest antimicrobial concentration assessed by the spectrophotometer that inhibited bacterial growth. ATCC 49775 was included in the isolate collection as a control organism using breakpoints defined by the CLSI. The MIC50, MIC90 (concentrations that inhibited growth of the lower 50% and 90% of total organisms, respectively), and MIC range (minimum and maximum) were calculated to profile the antimicrobial susceptibility of the isolate collection.

[3] = tested on: Staphylococcus aureus T3-129 / Staphylococcus spp. MK1; experiment: Synergy studies, checkerboard method (FIC index); type: cell-based; conditions: S. aureus strain T3-29
[4] = Methicillin-susceptible staphylococci (n = 10)
[5] = Total bacterial isolates (n = 30)

CC1(C)S[C@@H]2[C@H](NC(=O)[C@H](N)c3ccccc3)C(=O)N2[C@H]1C(=O)O [Ampicillin]
MIC range ([1]; E. faecalis, 4 isolates): 1 µg/mL (≈ 2.86 µM)
MIC50 ([1]; E. faecium, 16 isolates): 1 µg/mL (≈ 2.86 µM)
MIC range ([1]; E. faecium, 16 isolates): 1 µg/mL (≈ 2.86 µM)
MIC90 ([1]; E. faecium, 16 isolates, read-out: MIC90): 2 µg/mL (≈ 5.72 µM)
MIC ([1]; E. faecium, 16 isolates, read-out: MIC mode): 1 µg/mL (≈ 2.86 µM)
MIC ([1]; Enterococcus faecalis strain ATCC 29212, read-out: MIC of control strain (internal quality control)): 1 µg/mL
MIC90 ([1]; Enterococcus isolates of Table 4, Test 2): 2 µg/mL (≈ 5.72 µM)
MIC ([1]; Enterococcus, ATCC 29212 / VRE, Enterococcus spp. ATCC 29212, Test 1, read-out: MIC): 1 µg/mL (≈ 2.86 µM)
MIC ([1]; Enterococcus, ATCC 29212 / VRE, Enterococcus spp. ATCC 29212, Test 2, read-out: MIC): 1 µg/mL (≈ 2.86 µM)
MIC ([1]; Enterococcus, VRE, 20 isolates, read-out: MIC mode): 1 µg/mL (≈ 2.86 µM)
MIC ([1]; Enterococcus, VRE, B09/2021, Test 1, read-out: MIC): 1 µg/mL (≈ 2.86 µM)
MIC ([1]; Enterococcus, VRE, B09/2021, Test 2, read-out: MIC): 1 µg/mL (≈ 2.86 µM)
MIC ([1]; Enterococcus, VRE, B09/2032, Test 1, read-out: MIC): 2 µg/mL (≈ 5.72 µM)
MIC ([1]; Enterococcus, VRE, B09/2032, Test 2, read-out: MIC): 2 µg/mL (≈ 5.72 µM)
MIC ([1]; Enterococcus, VRE, B09/2087, Test 1, read-out: MIC): 2 µg/mL (≈ 5.72 µM)
MIC ([1]; Enterococcus, VRE, B09/2087, Test 2, read-out: MIC): 1 µg/mL (≈ 2.86 µM)
MIC ([1]; Enterococcus, VRE, B09/2088, Test 1, read-out: MIC): 1 µg/mL (≈ 2.86 µM)
MIC ([1]; Enterococcus, VRE, B09/2088, Test 2, read-out: MIC): 1 µg/mL (≈ 2.86 µM)
MIC ([1]; Enterococcus, VRE, B09/2121, Test 1, read-out: MIC): 1 µg/mL (≈ 2.86 µM)
MIC ([1]; Enterococcus, VRE, B09/2121, Test 2, read-out: MIC): 1 µg/mL (≈ 2.86 µM)
MIC ([1]; Enterococcus, VRE, B09/2192, Test 1, read-out: MIC): 1 µg/mL (≈ 2.86 µM)
MIC ([1]; Enterococcus, VRE, B09/2192, Test 2, read-out: MIC): 1 µg/mL (≈ 2.86 µM)
MIC ([1]; Enterococcus, VRE, Enterococcus 008, Test 1, read-out: MIC): 1 µg/mL (≈ 2.86 µM)
MIC ([1]; Enterococcus, VRE, Enterococcus 008, Test 2, read-out: MIC): 1 µg/mL (≈ 2.86 µM)
MIC ([1]; Enterococcus, VRE, Enterococcus 009, Test 1, read-out: MIC): 1 µg/mL (≈ 2.86 µM)
MIC ([1]; Enterococcus, VRE, Enterococcus 009, Test 2, read-out: MIC): 1 µg/mL (≈ 2.86 µM)
MIC ([1]; Enterococcus, VRE, Enterococcus 010, Test 1, read-out: MIC): 2 µg/mL (≈ 5.72 µM)
MIC ([1]; Enterococcus, VRE, Enterococcus 010, Test 2, read-out: MIC): 2 µg/mL (≈ 5.72 µM)
MIC ([1]; Enterococcus, VRE, Enterococcus 011, Test 1, read-out: MIC): 1 µg/mL (≈ 2.86 µM)
MIC ([1]; Enterococcus, VRE, Enterococcus 011, Test 2, read-out: MIC): 1 µg/mL (≈ 2.86 µM)
MIC ([1]; Enterococcus, VRE, Enterococcus 012, Test 1, read-out: MIC): 0.5 µg/mL (≈ 1.43 µM)
MIC ([1]; Enterococcus, VRE, Enterococcus 012, Test 2, read-out: MIC): 0.5 µg/mL (≈ 1.43 µM)
MIC ([1]; Enterococcus, VRE, Enterococcus 013, Test 1, read-out: MIC): 2 µg/mL (≈ 5.72 µM)
MIC ([1]; Enterococcus, VRE, Enterococcus 013, Test 2, read-out: MIC): 2 µg/mL (≈ 5.72 µM)
MIC ([1]; Enterococcus, VRE, Enterococcus 014, Test 1, read-out: MIC): 1 µg/mL (≈ 2.86 µM)
MIC ([1]; Enterococcus, VRE, Enterococcus 014, Test 2, read-out: MIC): 1 µg/mL (≈ 2.86 µM)
MIC ([1]; Enterococcus, VRE, VRE 001, Test 1, read-out: MIC): 0.5 µg/mL (≈ 1.43 µM)
MIC ([1]; Enterococcus, VRE, VRE 001, Test 2, read-out: MIC): 0.5 µg/mL (≈ 1.43 µM)
MIC ([1]; Enterococcus, VRE, VRE 002, Test 1, read-out: MIC): 1 µg/mL (≈ 2.86 µM)
MIC ([1]; Enterococcus, VRE, VRE 002, Test 2, read-out: MIC): 1 µg/mL (≈ 2.86 µM)
MIC ([1]; Enterococcus, VRE, VRE 003, Test 1, read-out: MIC): 0.5 µg/mL (≈ 1.43 µM)
MIC ([1]; Enterococcus, VRE, VRE 003, Test 2, read-out: MIC): 0.5 µg/mL (≈ 1.43 µM)
MIC ([1]; Enterococcus, VRE, VRE 004, Test 1, read-out: MIC): 1 µg/mL (≈ 2.86 µM)
MIC ([1]; Enterococcus, VRE, VRE 004, Test 2, read-out: MIC): 1 µg/mL (≈ 2.86 µM)
MIC ([1]; Enterococcus, VRE, VRE 005, Test 1, read-out: MIC): 1 µg/mL (≈ 2.86 µM)
MIC ([1]; Enterococcus, VRE, VRE 005, Test 2, read-out: MIC): 1 µg/mL (≈ 2.86 µM)
MIC ([1]; Enterococcus, VRE, VRE 006, Test 1, read-out: MIC): 1 µg/mL (≈ 2.86 µM)
MIC ([1]; Enterococcus, VRE, VRE 006, Test 2, read-out: MIC): 1 µg/mL (≈ 2.86 µM)
MIC ([1]; Enterococcus, VRE, VRE 007, Test 1, read-out: MIC): 1 µg/mL (≈ 2.86 µM)
MIC ([1]; Enterococcus, VRE, VRE 007, Test 2, read-out: MIC): 1 µg/mL (≈ 2.86 µM)
MIC50 ([1]; Enterococcus, VRE, 20 isolates): 1 µg/mL (≈ 2.86 µM)
MIC90 ([1]; VRE, 20 isolates): 2 µg/mL (≈ 5.72 µM)
MIC90 ([1]; VRE, Enterococcus isolates of Table 4, Test 1, read-out: MIC90): 2 µg/mL (≈ 5.72 µM)
MICrange ([2]; CA-MRSA (n = 10)): 8 to 128 µg/mL
MICrange [2, 4]: 0.25-16^ μg/ml
MIC ([2]; read-out: Observed MIC at 24-h, MRSA580, present study): > 128 µg/mL
MIC ([2]; read-out: Observed MIC at 24-h, MRSA698, present study): 16 µg/mL (≈ 45.8 µM)
MIC ([2]; read-out: Original MIC at 24-h, MRSA580, preliminary studies): > 128 µg/mL
MIC ([2]; read-out: Original MIC at 24-h, MRSA698, preliminary studies): 16 µg/mL (≈ 45.8 µM)
MIC ([2]; ATCC 49775 / MRSA / MSSA, read-out: Observed MIC at 24-h, ATCC 49775, present study): 0.25 µg/mL (≈ 0.715 µM)
MIC50 ([2]; CA-MRSA (n = 10)): 64 µg/mL (≈ 183 µM)
MIC90 ([2]; CA-MRSA (n = 10)): 128 µg/mL (≈ 366 µM)
MIC50 ([2]; HA-MRSA (n = 10)): 64 µg/mL (≈ 183 µM)
MIC90 ([2]; HA-MRSA (n = 10)): > 128 µg/mL
MIC50 [2, 4]: 0.25 µg/mL (≈ 0.715 µM)
MIC90 [2, 4]: 8 µg/mL (≈ 22.9 µM)
MIC50 [2, 5]: 16 µg/mL (≈ 45.8 µM)
MIC90 [2, 5]: 128 µg/mL (≈ 366 µM)
FICI ([3]; FIC index of antibiotic with NCL812): 0.75 and 0.53
FIC1 ([3]; MIC of antibiotic in combination with NCL812/MIC of antibiotic alone): 0.5
Result (interaction with NCL812) ([3]; antibiotic with NCL812): NE (No effect (NE) was defined as 0.5<FICI<4)
